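Interpolation was linear, between the two tested concentrations surrounding the appropriate level; five concentrations were tested over 48 hours in 96-well plates. TGI is the concentration that stops growth completely.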
Experiments:
Assay in all cases: NCI tumour cell line growth inhibition, 48 h
786-0 renal = test system: 786-0 renal
A498 renal = test system: A498 renal
ACHN renal = test system: ACHN renal
CAKI-1 renal = test system: CAKI-1 renal
HCT-116 colon = test system: HCT-116 colon
HOP-62 NSCLC = test system: HOP-62 NSCLC
K-562 leukemia = test system: K-562 leukemia
MALME-3M melanoma = test system: MALME-3M melanoma
MDA-MB-435 = test system: MDA-MB-435
NCI-H522 lung = test system: NCI-H522 lung
NCI/ADR-RES ovarian = test system: NCI/ADR-RES ovarian
OVCAR-4 ovarian = test system: OVCAR-4 ovarian
OVCAR-5 ovarian = test system: OVCAR-5 ovarian
SF-268 CNS = test system: SF-268 CNS
SK-MEL-2 melanoma = test system: SK-MEL-2 melanoma
SK-MEL-28 melanoma = test system: SK-MEL-28 melanoma
SK-MEL-5 melanoma = test system: SK-MEL-5 melanoma
SN12C renal = test system: SN12C renal
SNB-19 CNS = test system: SNB-19 CNS

| SMILES | TGI (786-0 renal) | TGI (A498 renal) | TGI (ACHN renal) | TGI (CAKI-1 renal) | TGI (HCT-116 colon) | TGI (HOP-62 NSCLC) | TGI (K-562 leukemia) | TGI (MALME-3M melanoma) | TGI (MDA-MB-435) | TGI (NCI-H522 lung) | TGI (NCI/ADR-RES ovarian) | TGI (OVCAR-4 ovarian) | TGI (OVCAR-5 ovarian) | TGI (SF-268 CNS) | TGI (SK-MEL-2 melanoma) | TGI (SK-MEL-28 melanoma) | TGI (SK-MEL-5 melanoma) | TGI (SN12C renal) | TGI (SNB-19 CNS) |
| --- | --- | --- | --- | --- | --- | --- | --- | --- | --- | --- | --- | --- | --- | --- | --- | --- | --- | --- | --- |
| CCCNCC(O)CNc1ccc(NCC(O)CNCCC)c2c1C(=O)c1ccccc1C2=O (stereo unspecified) | 8.21 µM | 23.5 µM | 18.3 µM | 28.7 µM | 8.31 µM | 8 µM | 8.21 µM | 11.3 µM | 10.5 µM | 7.81 µM | > 75 µM | 10.6 µM | 3.99 µM | 5.66 µM | 5.22 µM | 9.69 µM | 9.76 µM | 7.67 µM | 6.35 µM |
| CO[C@H]1O[C@@H]2OC3(C)CCC4[C@H](C)CCC([C@H]1C)[C@]42OO3 (stereo partly specified) | > 100 µM | > 100 µM | > 100 µM | > 100 µM | > 100 µM | > 100 µM | > 100 µM | > 100 µM | > 100 µM | > 100 µM | > 100 µM | > 100 µM | > 100 µM | > 100 µM | > 100 µM | > 100 µM | > 100 µM | > 100 µM | > 100 µM |
| O=C(NCCc1ccccc1)c1cc(/C=C/c2cc(O)ccc2O)ccc1O | 6.18 µM | 13.6 µM | 5.59 µM | 13.2 µM | 4.19 µM | 11.9 µM | 7.49 µM | 5.07 µM | 25.8 µM | 4.32 µM | > 34.2 µM | 3.76 µM | 25.3 µM | 10.2 µM | 11.8 µM | 10.4 µM | 7.32 µM | 19 µM | 19.6 µM |
| CC1(C)SCc2nc3ccccc3n21 | > 100 µM | > 100 µM | > 100 µM | > 100 µM | > 100 µM | > 100 µM | > 100 µM | > 100 µM | > 100 µM | > 100 µM | > 100 µM | > 100 µM | > 100 µM | > 100 µM | > 100 µM | > 100 µM | > 100 µM | > 100 µM | > 100 µM |
| Cc1[nH]c2nc3c(ncn3COCCO)c(=O)n2c1C(c1ccccc1)(c1ccccc1)c1ccccc1 | 32.2 µM | 33.3 µM | 35.5 µM | > 100 µM | 29.3 µM | 44.3 µM | 27.3 µM | 33.6 µM | 24.3 µM | 28.2 µM | > 100 µM | 30.4 µM | 32.7 µM | 33.1 µM | 29.8 µM | 43.5 µM | 29.4 µM | 33 µM | 28.6 µM |
| CCCCCCCC(CC(=O)NC(CO)C(=O)NC(CO)CC(C)C)OC(=O)CC(CCCCCCC)OC(=O)CC(CCCCCCC)OC1OC(C)C(O)C(OC2OC(C)C(O)C(O)C2O)C1O (stereo unspecified) | 35 µM | 35 µM | 25.5 µM | 33.2 µM | 20.8 µM | 35 µM | 25.7 µM | 24 µM | 19.5 µM | 29.5 µM | 33.7 µM | 28 µM | 26 µM | 23.2 µM | 13.3 µM | 21.2 µM | 21.3 µM | 28.7 µM | 26.1 µM |
| O=C(c1ccccc1)C(Nc1ccc2ccccc2c1)c1ccccc1 (stereo unspecified) | > 100 µM | 69.6 µM | > 100 µM | > 100 µM | > 100 µM | > 100 µM | > 87.6 µM | > 94.8 µM | > 48 µM | > 67.3 µM | > 100 µM | > 100 µM | > 100 µM | > 100 µM | 41.8 µM | > 100 µM | 36 µM | > 100 µM | > 100 µM |
| O=C1Nc2ccccc2/C1=C\c1c(-c2ccccc2)nc2n1CCS2 | 45.5 µM | 68.8 µM | > 100 µM | > 100 µM | 49.2 µM | > 100 µM | > 100 µM | 74.1 µM | 39.8 µM | 51.7 µM | 68.1 µM | > 100 µM | 58.5 µM | 86.9 µM | 28.5 µM | > 100 µM | 30.2 µM | 58.5 µM | 91 µM |
| COc1ccc2c(c1)-c1nc(=O)n(CCCN(C)C)c3ccc([N+](=O)[O-])c(c13)N2 | 1.94 µM | 31 µM | 15 µM | 5.26 µM | 12.8 µM | 2.39 µM | 0.235 µM | 3.28 µM | 32.2 µM | 1.93 µM | 10.4 µM | 7.34 µM | 4.89 µM | 17.8 µM | 27.6 µM | 4.3 µM | 4.4 µM | 13.8 µM | 8.58 µM |
